Here are results for three compounds from patent US6936597B2, “Prodrugs of anticancer agents employing substituted aromatic acids” (priority 2001, dated 2005).

One may read the IC50 as the concentration that inhibits the measured activity by half. A higher IC50 goes with weaker potency.

In series [1] the test system is LX-1 (solid human lung Tumor). Kind of series: LX-1 tumor xenograft in athymic nude mice. The format is in vivo. The settings on record: when control median tumor volume reached 1000 mm^3.
Method: All PEG conjugated compounds were dissolved (˜15 mg/mL) in sterile saline (0.9%) for injection prior to in vivo drug treatments and were given as their ara-C equivalents (absolute amount of ara-C given).
Athymic nude mice were implanted subcutaneous with a 4-5 mm^3 tissue fragment of LX-1 (solid human lung Tumor) collected from donor mice. The tumor trocar site was observed twice weekly and measured once palpable. The tumor volume for each mouse was determined by measuring two dimensions with calipers and calculated using the formula: tumor volume=(length×width^2)/2. […] The mice were sorted to evenly distribute tumor size, grouped into 4 to 6 mice/group, and ear punched for permanent identification. Drugs were administered intravenously q3d×4 (Day 1, 4, 7 and 10) via the tail vein at an approximate rate of 0.5 mL per minute.
Series [2] has as its system P388/O (murine lymphoid neoplasm) cell line. Kind of series: In vitro bioassay, cell growth by Alamar Blue. It is filed as cell-based. The following applies: P388/O cells, three days, 37° C., in duplicate, SD ±10%. How it is done:
A series of in vitro assays were conducted to determine the IC50 for unmodified Ara-C and compound 10 using the P388/O (murine lymphoid neoplasm, Southern Research Institute) cell line. The P388/0 cells were grown in RPMI 1640 medium (Whittaker Bioproducts, Walkersville, Md.)+10% FBS (Hyclone Inc., Logan Utah). Bioassays were performed in their respective media containing antibiotics and fungizone.
Ara-C was dissolved in DMSO and diluted to the appropriate concentration in culture media. The individual PEG-Ara-C compound was dissolved in water and diluted to the appropriate concentrations in culture media.
The assays were performed in duplicate in 96-well microtiter cell culture plates. Two fold serial dilution of the compounds were done in the microtiter plates. Cells were detached by incubating with 0.1% Trypsin/Versene at 37°. Trypsin was inactivated by adding the appropriate media for each cell line containing 10% FBS. To each well of the microtiter plates, 10,000 cells were added. After three days, cell growth was measured by addition of a metabolic indicator dye, Alamar Blue, according to the manufacturer's protocol. The IC50 value for the test compound and reference compound are provided above in the Table.
A general note: Alamar Blue is a resazurin reagent that responds to reducing activity.

Series [3] can be described thus: Half-life in rat plasma, measured by disappearance of PEG derivatives. It is filed as in vitro ADME. The settings on record: 37° C., in duplicate, SD ±10%.

Take `Nc1ccn([C@@H]2O[C@H](CO)[C@@H](O)[C@@H]2O)c(=O)n1` [Ara-C, cytosine arabinoside, reference compound]: the “% Tumor Growth Inhibition” value in series [1] (100 mg/kg i.v. q3d×4, LX-1 in nude mice) worked out at 26.2%. In series [2], it took 10 nM to reach half-maximal inhibition (IC50).
“PEG ara-C 4-aminobenzenamide [Compound 6b]”: the “% Tumor Growth Inhibition” value in series [1] (20 mg/kg (ara-C equivalents) i.v. q3d×4, LX-1 in nude mice) came to 12.3%. In series [3], the “t1/2 (h) Rat Plasma” value is 75 h. Also, half-maximal inhibition in series [2] (IC50) required 1190 nM.
Consider “PEG ara-C 4-aminomethylbenzenamide [Compound 6a]”, for which the “t1/2 (h) Rat Plasma” value in series [3] was determined as 65 h. In addition, the IC50 in series [2] amounted to 122 nM.
